The values below are quoted from earlier work in patent US8496977B2, “Natural extract from whole banana fruit (Musa Spp)” (priority 2009, dated 2013).

One series concerns eicosanoid synthesis. To be noted: by modulating eicosanoid synthesis.

Take `NCCc1ccc(O)c(O)c1` [dopamine]: the “protection against intestinal mucosal injury” value with eicosanoid synthesis was “protect against intestinal mucosal injury”. Also, under “compared with catechin and gallocatechin gallate”, the radical-scavenging rate entry is listed as “faster radical-scavenging rate than catechin”. The antioxidative potency entry (compared with other antioxidants) was “greater than that of BHA, BHT, flavonoids, glutathione, and catechin”.
